US20230302154A1, “NANODRUGS FOR TARGETED DRUG DELIVERY AND USE THEREOF” (priority 2020, published 2023)

How the values were obtained:
HMC-3 cells [1] = test: Cell viability (MTS) assay on HMC-3 cells; format: cell-based, human; conditions: HMC-3, 72 hours, 0.01-0.1 mg/mL
Experimental: (§1) To characterize the nanodisc formulation in the biological system in in vitro conditions, it was necessary to screen the formulation for cytotoxicity and ensure that it would not induce significant cytotoxicity to microglial (HMC-3) and neuronal (SH-SY5Y) cells. […] A cell viability (MTS) study was performed for both 1:20 and 1:4 NDs as per the manufacturer's instruction (G3582, Promega, Madison, WI, USA). Nanodiscs were introduced to these cells separately at varying TFV drug concentrations of 0.01-0.1 mg/mL and incubated for 72 hours.
(§2) Microglia and Neuroblastoma Cell Culture: Human embryonic microglial clone 3 cells (HMC-3) and human neuroblastoma cells (SH-SY5Y) were purchased from the American Type Culture Collection (ATCC) Manassas, VA, USA). The transformed cell lines retain the properties of primary cells. They represent homogeneous cell populations that can be grown indefinitely and might represent a convenient system for their functions' biochemical analysis. Cells were cultured in Eagle's Minimum Essential Medium (EMEM) (ATCC®, Manassas, VA, USA) supplemented with a fetal bovine serum to a final concentration of 10% at 37° C. in a humidified, 5% CO2 atmosphere as recommended by the supplier.
(§3) Cells were cultured in 96-well black bottom plates at 50,000 cells per well and incubated at 37° C. in a humidified, 5% CO2 atmosphere for 24 hours to allow for 70% confluence. […]

SH-SY5Y cells [2] = test: ROS production (DCF-DA) in SH-SY5Y cells; format: cell-based, human; conditions: 0.01-0.1 mg/mL TFV
Experimental: (§4) As a first approach to predict the inflammatory response on neuronal cells, the ROS production of HMC-3 and SH-SY5Y cells was evaluated. HMC-3 (FIG. 12A) and SH-SY5Y cells (FIG. 12B) were treated with the different drug-to-lipid ratios of 1:20 and 1:4 at varying TFV drug concentrations (0.01-0.1 mg/mL). A negative control antioxidant (catalase) and positive control (H2O2) were used on non-treated cells. A simultaneous setup was also performed for empty NDs at varying lipid concentrations.
(§5) Reactive oxygen species of ND: Reactive oxygen species (ROS) productions in HMC-3 and SH-SY5Y cells following nanodisc treatment were detected using dichlorofluorescein diacetate assay (DCF-DA; Molecular Probes, Eugene, OR). Cells were cultured in 96-well black bottom plates at 100,000 cells per well and incubated at 37° C. in a humidified, 5% CO2 atmosphere for 24 hours to allow for 70% confluence. The following day, cell media was taken out from each well and replenished with 100 μl of PBS+1% FBS. […] A study of FD-TFV was also measured in similar conditions simultaneously. […] Following 2 hours, the first reading of cell ROS production was read in a BioTek Synergy HTH.T. multi-mode microplate reader (BioTek, Winooski, VT, USA) and then taken every hour for the following 18 hours (excitation 485 nm and emission 528 nm; BioTek). […]

[3] = In vitro sustained drug release assay of liposomal structure (equilibrium dialysis in PBS, NanoDrop); format: physicochemical
Experimental: In order to study the liposome formulation's extended drug release kinetics, a drug release study was done in PBS using an equilibrium dialysis system. […] Liposome 1 has a lipid charge density of 5%. The released TFV from the dialysis bag into the outside environment was sampled at different time points up to 14 days and was measured by a NanoDrop Microvolume Spectrophotometer. Simultaneously, a separate setup with the same concentration and volume of FD-TFV was used as a control. Results were expressed as the cumulative total of TFV released into the system compared to the initial concentration (FIG. 18). […] This downward trend may be caused by byproducts from the FD-TFV in the external environment.

[4] = mouse, in vivo, iv, 20 mg/kg
Experimental: PK data analysis was performed using the plasma concentrations of TFV in the mice (FIG. 17). Plasma samples were collected for up to 48 hrs and 72 hours.
An Envigo Teklad Certified Global 18% protein rodent diet, #2018C, and water were provided to the mice ad libitum. Mice were administered a single dose intravenous (iv) dose administration. The average weight of Phase A and Phase B mice were 17.3-18.6 g and 17.2-23.4 g, respectively. All procedures were per the current Association for Assessment and Accreditation of Laboratory Animal Care (AAALAC) recommendations. In vivo studies were carried out in collaboration with NIH-DAIDS Preclinical Contract Services.
During the PK study, 24 males and 24 females used for this phase were divided into two groups (Table 5). […]
TFV was detected with the mass spectrometer in positive MRM (multiple reaction monitoring) mode by following the precursor to fragment ion transitions 288.1 to 176.2 for TFV. A Phenomenex Synergi Polar-RP column (4 microns, 100×2 mm) was used for chromatography with the following conditions: Buffer A: 2% acetic acid in water, Buffer B: 0.1% acetic acid in acetonitrile, 0-2.0 min 2% B, 2.0-2.01 min gradient to 98% B, 2.01-3.5 min gradient to 98% B, and then 3.51-5 min gradient to 2% B. The concentration of drug in each timepoint sample was quantified using Analyst 1.7 software (AB Sciex).

SH-SY5Y cells [5] = test: Cell viability (MTS) assay on SH-SY5Y cells; format: cell-based, human; conditions: 72 hours, 0.01-0.1 mg/mL
Experimental: as §1, §2, §3

[6] = In vitro sustained drug release assay of ND (equilibrium dialysis in PBS, LC-MS/MS); format: physicochemical
Experimental: In vitro sustained drug release assay: The nanodisc formulation's extended drug release profile was determined in phosphate buffer saline (PBS) using an equilibrium dialysis system. The released TFV from the dialysis bag into the outside environment was sampled at different time points up to 14 days and was measured by LC-MS/MS. The dialysis bag used in these experiments was selected for its pore size of 6-8 kDa MWCO. […] Simultaneously, a separate set up with the same concentration and volume of FD-TFV was used as a control. Results were expressed as the percentage of total TFV released into the system compared to the initial concentration. It was observed that 63% of FD-TFV was release within 4 hours. […] (FIG. 14).
In vitro sustained drug release assay of ND: The drug release kinetics of the nanodisc-based drug delivery was determined in PBS using equilibrium dialysis. […] TFV was monitored by LC-MS/MS using an AB Sciex (Framingham, MA) 6500+QTRAP® mass spectrometer coupled to a Shimadzu (Columbia, MD) NexeraX2 LC. […] LC-MS/MS then evaluated the supernatant. […] The limit of quantitation (LOQ) was defined as the lowest concentration at which back-calculation yielded a concentration within 20% of theoretical and above the LOD.

HMC-3 cells [7] = test: In vitro cellular uptake study in microglial cells; format: in vitro ADME, human; conditions: HMC-3, 0.0625 mg/mL, monitored over 24 hours
Experimental: Cell uptake and characterization of extended-release from nanodisc: To evaluate the intracellular uptake of TFV in microglial cells an in vitro cellular uptake study was performed. The cellular uptake of the two formulations (1:20 ND and 1:4 ND) and FD-TFV as a control were evaluated simultaneously and the uptake and release of TFV was monitored over 24 hours. […] This small window of cellular uptake may indicate that there is a certain capacity that microglia cells can uptake TFV. […] However, the short windows of drug uptake by the microglial cells could indicate that the size and surface charge of the ND could be a contributing factor.
Cell uptake and characterization of extended-release from ND: Microglial uptake, retention, and release of 1:20 ND, 1:4 ND, and FD-TFV were determined. HMC-3 cells were cultured in 24-well at 50,000 cells per well and incubated at 37° C. in a humidified, 5% CO2 atmosphere for 24 hours to allow for 70% confluence. After 24 hours of cell growth, samples were assigned into different treatment groups of 1:20 ND, 1:4 ND, and FD-TFV and treated at 0.0625 mg/mL concentration. Following drug treatment, samples were incubated at 37° C., and cell uptake was determined every hour over 8 hours and at a 24-hour timepoint. For each sample, media was collected into microcentrifuge tubes and stored at −20° C. for later analysis. […]

HMC-3 cells [8] = test: ROS production (DCF-DA) in HMC-3 cells; format: cell-based, human; conditions: 0.01-0.1 mg/mL TFV
Experimental: as §4, §5

C[C@H](Cn1cnc2c(N)ncnc21)OCP(=O)(O)O [FD-TFV, Tenofovir]
cytotoxicity compared to the control (HMC-3 cells [1]): not considered to be significantly toxic | ROS production compared to the control (SH-SY5Y cells [2]): did not induce a significant increase | drug release of TFV within 4 hours ([3]; NanoDrop spectrophotometer): 100% | drug release (comparison with liposomes) ([3]; up to 14 days): significantly faster drug release than the liposomes | AUCinf values (comparison with ND formulation) [4]: higher | plasma exposure higher than for ND (mean C0, AUClast and AUCinf) [4]: 2 fold | cytotoxicity compared to the control (SH-SY5Y cells [5]): not considered to be significantly toxic | TFV release profile (comparison) ([6]; PBS dialysis, up to 14 days): significantly faster TFV release | drug release within 4 hours ([6]; PBS, dialysis 6-8 kDa MWCO, 37° C., LC-MS/MS): 63% | time of maximum uptake (HMC-3 cells [7]): 2 h | ROS production compared to the control (HMC-3 cells [8]): did not induce a significant increase
